Data reported in ChEMBL document CHEMBL4196089, “Design, synthesis, biological evaluation and in vivo testing of dual phosphodiesterase 5 (PDE5) and histone deacetylase 6 (HDAC6)-selective inhibitors for the treatment of Alzheimer's disease” (Eur J Med Chem, 2018).

Experiments:
Histone deacetylase 1 = Histone deacetylase 1 (Homo sapiens, UniProt Q13547); assay: Inhibition of full length human recombinant C-terminal FLAG/His-tagged HDAC1 expressed in baculovirus infected sf9 cells using fluorogenic HDAC substrate 3 after 30 mins by fluorescence assay
Histone deacetylase 2 = Histone deacetylase 2 (Homo sapiens, UniProt Q92769); assay: Inhibition of full length human recombinant C-terminal His-tagged HDAC2 expressed in baculovirus infected sf9 cells using fluorogenic HDAC substrate 3 after 30 mins by fluorescence assay
[1] = target: T1, Protein deacetylase HDAC6 (Homo sapiens, UniProt Q9UBN7); assay: Inhibition of full length human recombinant N-terminal GST-tagged HDAC6 expressed in baculovirus infected sf9 cells using fluorogenic HDAC substrate 3 after 30 mins by fluorescence assay
T1 sequence (Q9UBN7 whole entry): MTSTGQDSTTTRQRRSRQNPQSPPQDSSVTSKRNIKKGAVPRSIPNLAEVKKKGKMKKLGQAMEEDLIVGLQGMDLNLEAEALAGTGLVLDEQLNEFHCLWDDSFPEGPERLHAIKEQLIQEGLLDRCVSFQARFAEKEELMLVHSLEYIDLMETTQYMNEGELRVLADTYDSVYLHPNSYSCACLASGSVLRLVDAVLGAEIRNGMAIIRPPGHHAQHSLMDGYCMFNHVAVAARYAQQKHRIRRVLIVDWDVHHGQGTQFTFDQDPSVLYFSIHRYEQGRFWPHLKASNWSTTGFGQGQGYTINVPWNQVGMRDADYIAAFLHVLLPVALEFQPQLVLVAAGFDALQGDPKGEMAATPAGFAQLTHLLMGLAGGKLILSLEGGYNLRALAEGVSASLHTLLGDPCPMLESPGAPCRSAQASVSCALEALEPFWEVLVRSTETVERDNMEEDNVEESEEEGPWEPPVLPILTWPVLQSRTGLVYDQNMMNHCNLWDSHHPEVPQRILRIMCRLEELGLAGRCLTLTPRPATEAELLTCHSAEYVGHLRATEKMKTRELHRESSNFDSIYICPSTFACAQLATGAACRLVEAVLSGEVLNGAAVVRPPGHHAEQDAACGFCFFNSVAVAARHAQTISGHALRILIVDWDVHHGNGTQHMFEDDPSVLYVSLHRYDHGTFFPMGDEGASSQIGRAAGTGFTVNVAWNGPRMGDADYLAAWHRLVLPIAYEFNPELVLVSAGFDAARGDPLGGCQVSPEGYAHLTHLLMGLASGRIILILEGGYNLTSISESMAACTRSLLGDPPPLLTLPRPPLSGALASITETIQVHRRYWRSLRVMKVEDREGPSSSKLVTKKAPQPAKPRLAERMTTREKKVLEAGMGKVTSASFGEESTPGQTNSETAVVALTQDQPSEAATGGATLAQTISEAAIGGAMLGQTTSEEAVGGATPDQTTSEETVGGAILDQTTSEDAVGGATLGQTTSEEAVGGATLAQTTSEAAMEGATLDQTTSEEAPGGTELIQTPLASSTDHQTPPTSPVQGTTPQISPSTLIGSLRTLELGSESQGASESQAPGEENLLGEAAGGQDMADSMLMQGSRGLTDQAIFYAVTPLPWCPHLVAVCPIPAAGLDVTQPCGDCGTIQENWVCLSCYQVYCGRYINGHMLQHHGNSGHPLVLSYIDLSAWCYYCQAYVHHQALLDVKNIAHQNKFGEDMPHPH

[2] = target: cGMP-specific 3',5'-cyclic phosphodiesterase (Homo sapiens, UniProt O76074); assay: Inhibition of full length human recombinant N-terminal GST-tagged PDE5A1 expressed in baculovirus infected sf9 cells using cGMP as substrate after 30 mins by fluorescence assay
[3] = Cytotoxicity against human THLE2 cells after 72 hrs by vialight cell proliferation assay; format: cell-based, THLE-2; details: read-out: LC50
[4] = Effective permeability of the compound at 50 uM after 18 hrs by UV spectroscopy based PAMPA; format: ADME; details: read-out: Peff
cells [5] = details: Homo sapiens, SH-SY5Y, 2 h, read-out: FC
cells [6] = details: Homo sapiens, SH-SY5Y, 2 h, read-out: FC; remark: listed apart in the source
cells [7] = details: Homo sapiens, SH-SY5Y, 2 h, read-out: FC; remark: listed apart in the source
[8] = target: Histone deacetylase 3/Nuclear receptor corepressor 2 (HDAC3/NCoR2) (Homo sapiens, UniProt O15379); assay: Inhibition of full length human recombinant C-terminal His-tagged HDAC3/N-terminal GST-tagged NCOR2 (95 to 489 residues) expressed in baculovirus infected sf9 cells using fluorogenic HDAC substrate 3 after 30 mins by fluorescence assay
Sequence of Histone deacetylase 3/Nuclear receptor corepressor 2 (HDAC3/NCoR2) (O15379 whole entry, the tested form may be a part): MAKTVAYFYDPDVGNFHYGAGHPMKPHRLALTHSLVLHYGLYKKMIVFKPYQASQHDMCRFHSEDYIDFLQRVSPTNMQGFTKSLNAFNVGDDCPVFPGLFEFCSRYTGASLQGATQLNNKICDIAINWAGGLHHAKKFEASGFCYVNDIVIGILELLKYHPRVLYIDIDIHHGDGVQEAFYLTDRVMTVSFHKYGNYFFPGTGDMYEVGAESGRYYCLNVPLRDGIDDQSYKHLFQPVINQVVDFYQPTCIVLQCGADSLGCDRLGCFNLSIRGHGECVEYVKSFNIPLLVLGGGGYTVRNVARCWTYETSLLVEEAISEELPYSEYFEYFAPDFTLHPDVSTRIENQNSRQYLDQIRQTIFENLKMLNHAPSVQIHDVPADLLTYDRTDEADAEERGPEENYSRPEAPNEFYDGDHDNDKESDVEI
Sequence of Histone deacetylase 3/Nuclear receptor corepressor 2 (HDAC3/NCoR2) (Q9Y618 whole entry, further chain, the tested form may be a part): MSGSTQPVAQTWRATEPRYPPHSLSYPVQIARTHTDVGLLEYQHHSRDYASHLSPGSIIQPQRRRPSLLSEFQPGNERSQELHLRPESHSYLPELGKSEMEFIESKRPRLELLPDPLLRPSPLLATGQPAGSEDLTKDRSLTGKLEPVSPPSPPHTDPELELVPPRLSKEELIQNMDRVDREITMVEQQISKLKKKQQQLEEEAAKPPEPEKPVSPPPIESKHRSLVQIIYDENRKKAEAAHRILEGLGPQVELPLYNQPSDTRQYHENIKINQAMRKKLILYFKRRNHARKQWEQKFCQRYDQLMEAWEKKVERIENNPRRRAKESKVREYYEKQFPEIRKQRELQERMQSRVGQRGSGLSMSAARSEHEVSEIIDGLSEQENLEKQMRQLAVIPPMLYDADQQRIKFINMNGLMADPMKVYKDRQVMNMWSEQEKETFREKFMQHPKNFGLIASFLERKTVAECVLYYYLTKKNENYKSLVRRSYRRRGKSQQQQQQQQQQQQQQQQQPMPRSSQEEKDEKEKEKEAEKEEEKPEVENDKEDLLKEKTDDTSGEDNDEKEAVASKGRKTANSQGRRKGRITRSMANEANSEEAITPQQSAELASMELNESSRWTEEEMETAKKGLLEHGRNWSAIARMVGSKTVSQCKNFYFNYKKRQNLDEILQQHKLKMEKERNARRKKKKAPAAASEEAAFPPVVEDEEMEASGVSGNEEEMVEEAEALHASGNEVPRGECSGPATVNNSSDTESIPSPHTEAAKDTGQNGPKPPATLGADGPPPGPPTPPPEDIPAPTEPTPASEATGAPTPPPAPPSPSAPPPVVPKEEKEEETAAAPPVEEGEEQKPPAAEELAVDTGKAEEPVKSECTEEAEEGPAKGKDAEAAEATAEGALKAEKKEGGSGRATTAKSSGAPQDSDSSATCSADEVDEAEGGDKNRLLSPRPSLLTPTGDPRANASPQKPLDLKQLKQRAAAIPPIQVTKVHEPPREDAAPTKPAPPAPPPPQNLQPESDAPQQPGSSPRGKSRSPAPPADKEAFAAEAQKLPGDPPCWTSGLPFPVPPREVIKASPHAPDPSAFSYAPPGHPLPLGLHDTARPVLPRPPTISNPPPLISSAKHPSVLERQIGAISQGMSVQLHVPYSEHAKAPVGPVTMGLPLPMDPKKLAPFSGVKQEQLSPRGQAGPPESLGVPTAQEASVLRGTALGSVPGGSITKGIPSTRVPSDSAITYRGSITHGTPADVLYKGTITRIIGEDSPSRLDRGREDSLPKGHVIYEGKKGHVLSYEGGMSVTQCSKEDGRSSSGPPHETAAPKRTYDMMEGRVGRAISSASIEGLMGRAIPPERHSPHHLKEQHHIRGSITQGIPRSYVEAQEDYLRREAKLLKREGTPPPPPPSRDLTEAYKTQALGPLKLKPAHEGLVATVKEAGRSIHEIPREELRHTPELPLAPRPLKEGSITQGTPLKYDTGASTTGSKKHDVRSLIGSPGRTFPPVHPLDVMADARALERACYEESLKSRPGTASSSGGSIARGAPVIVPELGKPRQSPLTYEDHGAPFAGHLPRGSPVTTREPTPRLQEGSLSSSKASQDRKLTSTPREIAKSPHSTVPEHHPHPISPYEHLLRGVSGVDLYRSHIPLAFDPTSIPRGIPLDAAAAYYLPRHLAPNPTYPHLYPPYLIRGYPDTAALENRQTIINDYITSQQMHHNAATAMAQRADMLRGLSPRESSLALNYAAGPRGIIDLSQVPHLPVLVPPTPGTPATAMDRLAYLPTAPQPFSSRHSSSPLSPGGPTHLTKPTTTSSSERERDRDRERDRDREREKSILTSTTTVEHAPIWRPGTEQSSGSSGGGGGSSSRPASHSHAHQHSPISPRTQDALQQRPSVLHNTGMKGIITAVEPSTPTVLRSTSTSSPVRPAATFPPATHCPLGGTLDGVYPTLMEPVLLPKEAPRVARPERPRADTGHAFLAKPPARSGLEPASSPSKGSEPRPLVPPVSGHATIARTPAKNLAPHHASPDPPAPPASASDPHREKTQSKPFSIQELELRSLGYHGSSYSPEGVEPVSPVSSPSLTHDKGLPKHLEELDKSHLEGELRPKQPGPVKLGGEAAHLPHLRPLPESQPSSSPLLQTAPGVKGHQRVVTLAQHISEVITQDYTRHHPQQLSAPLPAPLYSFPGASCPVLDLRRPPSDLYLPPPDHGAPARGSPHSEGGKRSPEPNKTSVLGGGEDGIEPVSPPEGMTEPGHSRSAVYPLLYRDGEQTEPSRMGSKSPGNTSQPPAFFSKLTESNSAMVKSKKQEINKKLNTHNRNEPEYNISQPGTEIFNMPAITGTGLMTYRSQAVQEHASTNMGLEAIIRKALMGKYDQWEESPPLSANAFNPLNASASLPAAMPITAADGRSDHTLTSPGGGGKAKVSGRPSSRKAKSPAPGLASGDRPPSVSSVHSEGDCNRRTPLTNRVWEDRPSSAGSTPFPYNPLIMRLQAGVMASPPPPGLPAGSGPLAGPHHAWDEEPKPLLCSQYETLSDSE

Sequence of Histone deacetylase 2 (Q92769 whole entry): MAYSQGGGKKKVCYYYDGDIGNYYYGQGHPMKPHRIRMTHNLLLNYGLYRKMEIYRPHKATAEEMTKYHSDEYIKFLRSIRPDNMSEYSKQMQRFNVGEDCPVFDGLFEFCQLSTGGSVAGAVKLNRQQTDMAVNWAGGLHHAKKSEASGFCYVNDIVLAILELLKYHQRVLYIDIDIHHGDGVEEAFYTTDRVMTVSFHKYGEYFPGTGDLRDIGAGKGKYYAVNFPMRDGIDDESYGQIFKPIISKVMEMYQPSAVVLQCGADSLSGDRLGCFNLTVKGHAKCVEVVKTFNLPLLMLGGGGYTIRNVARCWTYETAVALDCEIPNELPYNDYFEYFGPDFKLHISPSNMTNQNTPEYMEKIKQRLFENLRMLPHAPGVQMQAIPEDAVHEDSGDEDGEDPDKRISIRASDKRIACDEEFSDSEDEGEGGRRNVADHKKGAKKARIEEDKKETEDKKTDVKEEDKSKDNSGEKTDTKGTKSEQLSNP
Sequence of Histone deacetylase 1 (Q13547 whole entry): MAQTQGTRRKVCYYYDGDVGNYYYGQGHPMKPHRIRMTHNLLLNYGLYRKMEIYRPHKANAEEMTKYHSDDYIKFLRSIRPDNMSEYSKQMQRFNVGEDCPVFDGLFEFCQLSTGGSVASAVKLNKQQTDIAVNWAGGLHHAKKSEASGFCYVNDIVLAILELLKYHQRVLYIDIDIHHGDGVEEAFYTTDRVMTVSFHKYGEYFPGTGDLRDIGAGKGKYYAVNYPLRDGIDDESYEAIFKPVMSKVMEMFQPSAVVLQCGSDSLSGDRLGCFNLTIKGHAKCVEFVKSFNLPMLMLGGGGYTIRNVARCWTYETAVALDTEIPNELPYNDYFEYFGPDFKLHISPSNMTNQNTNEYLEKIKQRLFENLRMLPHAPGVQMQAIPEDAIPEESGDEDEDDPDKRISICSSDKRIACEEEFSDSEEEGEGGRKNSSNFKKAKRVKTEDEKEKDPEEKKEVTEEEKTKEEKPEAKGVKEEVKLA

Structure (SMILES)	IC50 (Histone deacetylase 1) [nM]	IC50 (Histone deacetylase 2) [nM]	IC50 [1] [nM]	IC50 [2] [nM]	CC50 at 72 h [3] [nM]	Papp at 18 h, 50 µM [4] [×10⁻⁶ cm/s]	fold induction at 0.1 µM (cells [5])	fold induction at 0.5 µM (cells [6])	fold induction at 1 µM (cells [7])	IC50 [8] [nM]
CCCc1nn(C)c2c(=O)[nH]c(-c3cc(Cc4ccc(C(=O)NO)cc4F)ccc3OCC)nc12	2030	14600	87	149	16500	3.7	0.9	1.1	1.6	–
CCCc1nn(C)c2c(=O)[nH]c(-c3cc(Cc4ccc(C(=O)NO)cc4OC)ccc3OCC)nc12	> 20000	> 20000	> 20000	47	–	–	–	–	–	–
CCCc1nn(C)c2c(=O)[nH]c(-c3cc(C(O)c4ccc(C(=O)NO)cc4)ccc3OCC)nc12 (stereo not drawn)	335	1110	89	10	–	–	–	–	–	–
CCCc1nn(C)c2c(=O)[nH]c(-c3cc(C(=O)c4ccc(C(=O)NO)s4)ccc3OCC)nc12	276	799	192	3	–	–	–	–	–	–
CCCc1nn(C)c2c(=O)[nH]c(-c3cc([C@H]4CC[C@@H](C(=O)NO)CC4)ccc3OCC)nc12	937	> 20000	48	53	16000	1.68	0.7	1.8	5.4	–
CCCc1nn(C)c2c(=O)[nH]c(-c3cc(OCc4ccc(C(=O)NO)cc4)ccc3OCC)nc12	1080	11400	33	79	–	–	–	–	–	–
CCCc1nn(C)c2c(=O)[nH]c(-c3cc(C(OC)c4ccc(C(=O)NO)cc4)ccc3OCC)nc12 (stereo not drawn)	357	1110	77	20	–	–	–	–	–	–
CCCc1nc(C)c2c(=O)[nH]c(-c3cc(S(=O)(=O)N4CCN(CC)CC4)ccc3OCC)nn12	–	–	–	–	> 100000	2.14	–	–	–	–
CCCc1nn(C)c2c(=O)[nH]c(-c3cc(Cc4ccc(C(=O)NO)c(OC)c4)ccc3OCC)nc12	> 20000	> 20000	> 20000	144	–	–	–	–	–	–
CCCc1nn(C)c2c(=O)[nH]c(-c3cc(-c4ccc(C(=O)NO)cc4)ccc3OCC)nc12	326	2550	42	1	8830	2.68	0.8	1.7	3.6	–
CCCc1nn(C)c2c(=O)[nH]c(-c3cc(-c4ccc(CC(=O)NO)cc4)ccc3OCC)nc12	> 20000	> 20000	815	10	15400	1.97	0.6	0.8	1.2	–
CCCc1nn(C)c2c(=O)[nH]c(-c3cc(C4CCC(C(=O)NO)CC4)ccc3OCC)nc12 (stereo not drawn)	8380	> 20000	3110	146	–	–	–	–	–	–
CCCc1nn(C)c2c(=O)[nH]c(-c3cc([C@H]4CC[C@H](C(=O)NO)CC4)ccc3OCC)nc12	10200	> 20000	5440	190	–	–	–	–	–	–
CCCc1nc(C)c2c(=O)[nH]c(-c3cc(Cc4ccc(C(=O)NO)s4)ccc3OCC)nn12	793	4390	98	3	6940	1.6	0.7	0.9	0.8	–
CCCc1nn(C)c2c(=O)[nH]c(-c3cc(N4CCC(C(=O)NO)CC4)ccc3OCC)nc12	7200	> 20000	1180	36	–	–	–	–	–	–
CCCc1nc(C)c2c(=O)[nH]c(-c3cc(Cc4ccc(C(=O)NO)cc4)ccc3OCC)nn12	1830	5190	256	13	26700	1.86	0.4	0.9	1.3	–
CCCc1nn(C)c2c(=O)[nH]c(-c3cc(Cc4ccc(C(=O)NO)o4)ccc3OCC)nc12	2230	17500	168	3	–	–	–	–	–	> 20000
CCCc1nn(C)c2c(=O)[nH]c(-c3cc(Nc4ccc(C(=O)NO)cc4)ccc3OCC)nc12	490	> 20000	66	2	–	–	–	–	–	–
CCCc1nn(C)c2c(=O)[nH]c(-c3cc(C4=CCC(C(=O)NO)CC4)ccc3OCC)nc12 (stereo not drawn)	2880	> 20000	340	27	–	–	–	–	–	–
CCCc1nn(C)c2c(=O)[nH]c(-c3cc(-c4ccc(C(=O)NO)s4)ccc3OCC)nc12	387	4800	37	7	2180	2.82	1.1	2.5	2.7	–
CCCc1nn(C)c2c(=O)[nH]c(-c3cc(Cc4ccc(C(=O)NO)c(F)c4)ccc3OCC)nc12	1110	> 20000	142	31	3510	2.84	2	2.7	1.4	–
CCCc1nn(C)c2c(=O)[nH]c(-c3cc(C4=CCC(CC(=O)NO)CC4)ccc3OCC)nc12 (stereo not drawn)	1810	> 20000	217	14	–	–	–	–	–	–
CCCc1nn(C)c2c(=O)[nH]c(-c3cc(S(=O)(=O)N4CCN(C)CC4)ccc3OCC)nc12	–	–	–	–	> 100000	–	–	–	–	–
